Laboratory results published in patent US20250127906A1, “SMALL-MOLECULE DEGRADERS OF CDK8 AND CDK19” (University of South Carolina, priority 2021, published 2025).

What was measured:
CDK19 [1] = target: CDK19 (Homo sapiens, UniProt Q9BWU1); assay: CDK19 degradation in HEK-293 cells with CRISPR knockout of CCNC; assay type: cell-based; design: a derivative of HEK-293cells with CRISPR-mediated knockout of CCNC; endogenous in cells; host or cells: HEK-293 with CRISPR knockout of CCNC; details: HEK-293 CCNC-knockout cells, 24 hr treatment
Source text: This cell line, however, is unique in lacking Cyclin C (CCNC), the binding partner of CDK8/19. To test if the absence of CDK8-bound CCNC was responsible for the loss of IA7843 CDK8-degrading activity, we have tested the effect of IA7843 on a derivative of HEK-293cells with CRISPR-mediated knockout of CCNC.

SK-MM-2 cells = assay: SK-MM-2 multiple myeloma cell growth over 20 days continuous treatment; assay type: cell-based; details: BI1347 200 nM, Senexin C 1 μM, IA7886 200 nM, IA7843 1 μM
Method: The following CDK8/19 kinase inhibitors were tested for their effects on MM cell lines over 20 days continuous treatment: CDK8/19 kinase inhibitors BI1347 (200 nM) and Senexin C (1 μM), BI1347-derived PROTAC IA7886 (200 nM) and Senexin C-derived PROTAC IA7843 (1 μM). 1-4 million cells were treated with vehicle control (0.1% DMSO), or CDK8/19 kinase inhibitors or PROTACs for 20 days. Every 4 days, cells were counted using BioRAD TC20 Automated Cell Counter with trypan blue staining, and the same number of cells were passaged to a new T25 flask to propagate under the same treatment conditions.

CDK19 [2] = target: T1, CDK19 (Canis lupus familiaris, UniProt A0A8I3NZB9); assay: CDK19 degradation in canine Abrams osteosarcoma cells; assay type: cell-based
T1 construct: endogenous in cells; host or cells: Abrams (canine osteosarcoma)
T1 sequence (A0A8I3NZB9 1-502): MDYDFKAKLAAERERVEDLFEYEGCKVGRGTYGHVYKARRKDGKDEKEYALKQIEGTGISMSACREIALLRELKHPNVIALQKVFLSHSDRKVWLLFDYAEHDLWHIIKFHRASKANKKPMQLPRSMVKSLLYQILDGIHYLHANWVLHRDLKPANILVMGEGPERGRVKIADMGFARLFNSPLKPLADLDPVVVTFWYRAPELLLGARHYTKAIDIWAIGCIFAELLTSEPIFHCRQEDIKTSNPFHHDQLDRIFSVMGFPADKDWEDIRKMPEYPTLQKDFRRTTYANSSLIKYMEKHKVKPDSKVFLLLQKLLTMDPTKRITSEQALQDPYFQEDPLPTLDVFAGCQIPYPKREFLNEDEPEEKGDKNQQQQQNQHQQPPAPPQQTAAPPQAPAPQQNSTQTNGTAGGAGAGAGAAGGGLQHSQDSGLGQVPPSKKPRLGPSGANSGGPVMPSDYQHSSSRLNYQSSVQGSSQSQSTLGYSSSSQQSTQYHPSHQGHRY
Source text: Both the extent and the kinetics of CDK8 degradation were similar between two cell lines, with the degradation reaching maximum at about 8 hrs of PROTAC treatment.

[3] = Serum drug concentrations in CD-1 mice (LCMSMS); assay type: in vivo; details: female CD-1 mice, i.p. 15 mg/kg, 15 min and 1 hr
Method: For preliminary evaluation of the bioavailability of the PROTACs, IA7882 and IA7886 were administered to female CD-1 mice via intraperitoneal (i.p.) injection at the dose of 15 mg/kg. Drug concentrations were measured by LCMSMS analysis of serum samples collected at 15 min and 1 hr time point.

CDK8 = CDK8 (Homo sapiens, UniProt P49336); assay: CDK8 degradation in other human cell lines (22Rv1, MV4-11, HAP-1, HTB-185, SAOS2, SJSA-1); assay type: cell-based; design: endogenous in cells; details: 24-hr treatment
Source text: FIG. 5 illustrates the effects of the novel PROTACs HP8580, IA7843 and IA7886 on CDK8 and CDK19 degradation in other human cell lines, including 22Rv1 prostate cancer (expressing more CDK19 than CDK8), MV4-11 (AML) and HAP-1 (CML) leukemia cell lines, HTB-185 medulloblastoma, and SAOS2 and SJSA-1 osteosarcoma (the latter expressing only CDK19 but not CDK8).

CDK8/19-regulated genes = assay: QPCR of CDK8/19-regulated genes in HEK-293 wild-type and CDK8/19 double-knockout cells; assay type: cell-based, human; details: for effect on expression of CDK8/19-regulated genes: 200 nM, 3-day treatment
Method: CDK8/19 act as transcriptional regulators, and therefore we tested the effects of 3-day treatment with 200 nM PROTAC IA7886 along with 200 nM CDK8/19 kinase inhibitor BI-1347 on a series of CDK8/19-regulated genes, using QPCR.
We have also compared the stability of transcriptional changes induced by a PROTAC and by a kinase inhibitor. In the experiment shown in FIG. 10A, HEK-293 cells were treated with 200 nM of BI-1347 or IA7886 for 3 days, and then the inhibitors were washed off and the restoration of transcriptional changes was monitored 24 hrs and 48 hrs after wash-off.

CDK8, sequence (P49336 whole entry): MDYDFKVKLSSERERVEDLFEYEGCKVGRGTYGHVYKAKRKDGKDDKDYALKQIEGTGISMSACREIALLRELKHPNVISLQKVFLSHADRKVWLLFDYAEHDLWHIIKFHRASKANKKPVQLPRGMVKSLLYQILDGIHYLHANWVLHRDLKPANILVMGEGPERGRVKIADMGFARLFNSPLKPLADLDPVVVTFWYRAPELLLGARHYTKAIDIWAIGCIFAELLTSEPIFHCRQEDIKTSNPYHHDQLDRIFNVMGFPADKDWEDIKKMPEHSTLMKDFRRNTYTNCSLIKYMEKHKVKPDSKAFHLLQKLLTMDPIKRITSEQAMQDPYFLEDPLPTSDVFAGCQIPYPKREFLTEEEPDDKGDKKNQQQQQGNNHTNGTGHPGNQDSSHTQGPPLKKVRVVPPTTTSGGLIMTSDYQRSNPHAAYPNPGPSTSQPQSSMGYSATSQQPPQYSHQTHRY
CDK8, sequence (P24863 whole entry partner): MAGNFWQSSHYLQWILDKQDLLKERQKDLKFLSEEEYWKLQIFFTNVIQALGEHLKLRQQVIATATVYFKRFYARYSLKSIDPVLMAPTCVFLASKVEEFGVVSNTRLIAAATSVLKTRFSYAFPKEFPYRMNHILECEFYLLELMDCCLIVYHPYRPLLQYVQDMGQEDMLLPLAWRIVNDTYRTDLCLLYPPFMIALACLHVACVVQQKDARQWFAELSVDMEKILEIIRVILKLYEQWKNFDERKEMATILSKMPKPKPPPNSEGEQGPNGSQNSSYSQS
CDK19 (Homo sapiens, UniProt Q9BWU1), sequence (Q9BWU1 whole entry): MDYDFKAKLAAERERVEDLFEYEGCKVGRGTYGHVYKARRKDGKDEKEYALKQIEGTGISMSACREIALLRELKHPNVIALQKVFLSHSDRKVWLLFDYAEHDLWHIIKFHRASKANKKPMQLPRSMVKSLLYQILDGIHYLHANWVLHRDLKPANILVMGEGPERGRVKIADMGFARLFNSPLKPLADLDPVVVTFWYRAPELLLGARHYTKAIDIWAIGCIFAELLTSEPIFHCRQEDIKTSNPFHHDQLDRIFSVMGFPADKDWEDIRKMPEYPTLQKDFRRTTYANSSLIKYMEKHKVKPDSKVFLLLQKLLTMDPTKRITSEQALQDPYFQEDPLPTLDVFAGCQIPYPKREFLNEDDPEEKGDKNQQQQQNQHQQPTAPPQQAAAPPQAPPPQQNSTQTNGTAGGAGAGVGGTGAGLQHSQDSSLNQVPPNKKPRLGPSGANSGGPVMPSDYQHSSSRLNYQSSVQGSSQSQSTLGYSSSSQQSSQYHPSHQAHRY

O=C(CCCNc1cccc2c1C(=O)N(C1CCC(=O)NC1=O)C2=O)NCCCCCCCCCCC(=O)N1CCN(C(=O)Cn2cc(-c3ccc(-c4cncc5ccccc45)cc3)cn2)CC1 (centres unmarked) [IA7886, 4-[[2-(2,6-dioxo-3-piperidyl)-1,3-dioxo-isoindolin-4-yl]amino]-N-[11-[4-[2-[4-[4-(4-isoquinolyl)phenyl]pyrazol-1-yl]acetyl]piperazin-1-yl]-11-oxo-undecyl]butanamide]
CDK19 degradation (in words) (CDK19 [1]): efficiently degraded CDK8 and CDK19
growth inhibition over 20 days, order of efficacy (SK-MM-2 cells): BI1347<IA7886<Senexin C<IA7843
CDK19 degradation (in words) (CDK19 [2]): induced CDK19 degradation in Abrams cells
serum drug concentrations [3]: readily measurable and were higher for IA7882 than for IA7886
CDK8 degradation (in words) (CDK8): significantly degraded CDK8 and CDK19 in all the tested cell lines
effect on expression of CDK8/19-regulated genes (CDK8/19-regulated genes; CDK8/19 double-knockout (dKO) 293 cells): had no effect in dKO cells
stability of transcriptional changes after wash-off (CDK8/19-regulated genes; HEK-293, 200 nM for 3 days, then 24 hrs and 48 hrs after wash-off): maintained even 48 hrs after wash-off
effect on expression of CDK8/19-regulated genes (CDK8/19-regulated genes; wild-type HEK-293 cells): had similar effects on the expression of the tested genes
